The values that follow come from patent US10532995B2, “Substituted pyrazole compounds as serine protease inhibitors” (VERSEON CORPORATION, priority 2015, dated 2020).

Structures can show the parent of a compound that is named as a salt. Where only a bound is given, the exact number is not on record here.

For this test, the target named is T1, Human thrombin (Homo sapiens, UniProt P00734).
T1 construct: purchased Haematologic Technologies Inc
As to the kind of experiment: Thrombin protease activity inhibition, chromogenic substrate S-2238. To be noted: 3 nM thrombin, 125 μM S-2238, 10 min pre-incubation, RT. Type of test: biochemical. The method, then: The thrombin activity reported herein (e.g., Table A) was obtained as follows. […] Thrombin was assayed in buffer containing 0.05 M Tris (pH 7.4), 0.015 M NaCl and 0.01% PEG-8000. The final concentration of enzyme used was 3 nM thrombin. […] All assays were performed in 96-well microtiter plates at room temperature (RT). […] Inhibitor IC50 values were determined by adding test compound as ten point, three-fold serial dilutions in buffer solution, as known in the art. The plate was read at 10 minutes after substrate addition. The IC50 was calculated by plotting the percent (%) inhibition against compound concentration and fitting the data to a constrained four parameter sigmoidal curve, as known in the art.
`O=S(=O)(N1CCOCC1)N1CCC(c2cc(N(Cc3ccc(Cl)s3)S(=O)(=O)N3CCOCC3)[nH]n2)CC1` [Entry 238, N-[(5-chlorothiophen-2-yl)methyl]-N-3-[1-(morpholine-4-sulfonyl)piperidin-4-yl]-1H-pyrazol-5-ylmorpholine-4-sulfonamide] yielded an IC50 of 1000 to 10000 nM.

`C=CCOC(=O)N1CCN(C(=O)CN2CCOCC2)CC1c1cc(NCc2ccc(Cl)s2)[nH]n1` (centres unmarked) [Entry 251, prop-2-en-1-yl 2-(5-[(5-chlorothiophen-2-yl)methyl]amino-1H-pyrazol-3-yl)-4-[2-(morpholin-4-yl)acetyl]piperazine-1-carboxylate] registered an IC50 above 100000 nM.

With `COc1ccccc1C(=O)n1nc(C2(C)CCNCC2)cc1NCc1ccc(Cl)s1` [Entry 154, N-[(5-chlorothiophen-2-yl)methyl]-1-(2-methoxybenzoyl)-3-(4-methylpiperidin-4-yl)-1H-pyrazol-5-amine], the IC50 lay within 1000 to 10000 nM.

Turning to `C=CCOC(=O)N1CCC(c2cc(NCc3ccc(Cl)s3)n(C(=O)C(C)(C)C)n2)C1` (centres unmarked) [Entry 256, prop-2-en-1-yl 3-(5-[(5-chlorothiophen-2-yl)methyl]amino-1-(2,2-dimethylpropanoyl)-1H-pyrazol-3-yl)pyrrolidine-1-carboxylate], the IC50 was below 100 nM.

In the case of `CC(C)(C)C(=O)n1nc(C2CCN(CC(=O)O)CC2)cc1NCc1ccc(Cl)s1` [Entry 109, 2-[4-(5-[(5-chlorothiophen-2-yl)methyl]amino-1-(2,2-dimethylpropanoyl)-1H-pyrazol-3-yl)piperidin-1-yl]acetic acid], the IC50 lay in the range of 100 to 1000 nM.

The compound `C=CCOC(=O)N1CCN(C(=O)N2CCOCC2)CC1c1cc(NCc2ccc(Cl)s2)n(C(=O)C(C)(C)C)n1` (centres unmarked) [Entry 244, prop-2-en-1-yl 2-(5-[(5-chlorothiophen-2-yl)methyl]amino-1-(2,2-dimethylpropanoyl)-1H-pyrazol-3-yl)-4-(morpholine-4-carbonyl)piperazine-1-carboxylate] showed an IC50 of 1000 to 10000 nM.

Turning to `CC(C)(C)OC(=O)N1CCCC(C)(c2cc(NCc3ccc(Cl)s3)n(C(=O)c3ccsc3)n2)C1` (centres unmarked) [Entry 288, tert-butyl 3-(5-[(5-chlorothiophen-2-yl)methyl]amino-1-(thiophene-3-carbonyl)-1H-pyrazol-3-yl)-3-methylpiperidine-1-carboxylate], the IC50 was below 100 nM.

Take `Clc1ccc(CNc2cc(C3CCN(CCc4ccccn4)CC3)n[nH]2)s1` [Entry 224, N-[(5-chlorothiophen-2-yl)methyl]-3-1-[2-(pyridin-2-yl)ethyl]piperidin-4-yl-1H-pyrazol-5-amine]: the half-maximal inhibitory concentration (IC50) was above 100000 nM.

`O=C(c1ccsc1)n1nc(C2CCOCC2)cc1NCc1ccc(Cl)s1` [Entry 181, N-[(5-chlorothiophen-2-yl)methyl]-3-(oxan-4-yl)-1-(thiophene-3-carbonyl)-1H-pyrazol-5-amine] displayed an IC50 of 100 to 1000 nM.

The compound `O=C(c1ccoc1)n1nc(C2CCN(Cc3ccccc3)C2)cc1NCc1ccc(Cl)s1` (centres unmarked) [Entry 114, 3-(1-benzylpyrrolidin-3-yl)-N-[(5-chlorothiophen-2-yl)methyl]-1-(furan-3-carbonyl)-1H-pyrazol-5-amine] had an IC50 of 1000 to 10000 nM.

In the case of `O=C(CN1CCOCC1)N1CCCC1c1cc(NCc2ccc(Cl)s2)[nH]n1` (centres unmarked) [Entry 93, 1-[2-(5-[(5-chlorothiophen-2-yl)methyl]amino-1H-pyrazol-3-yl)pyrrolidin-1-yl]-2-(morpholin-4-yl)ethan-1-one], the IC50 was above 100000 nM.

`Clc1ccc(CNc2cc(C3CCN(Cc4cnco4)CC3)n[nH]2)s1` [Entry 194, N-[(5-chlorothiophen-2-yl)methyl]-3-[1-(1,3-oxazol-5-ylmethyl)piperidin-4-yl]-1H-pyrazol-5-amine]: the IC50 is above 100000 nM.

`O=C(N1CCOCC1)N1C2CCC1CC(c1cc(NCc3ccc(Cl)s3)n(C(=O)c3cscn3)n1)C2` (centres unmarked) [Entry 213, N-[(5-chlorothiophen-2-yl)methyl]-3-[8-(morpholine-4-carbonyl)-8-azabicyclo[3.2.1]octan-3-yl]-1-(1,3-thiazole-4-carbonyl)-1H-pyrazol-5-amine] showed an IC50 below 100 nM.

`C=CCOC(=O)N1CCC(c2nn(C(=O)C(C)(C)C)c(NCc3ccc(Cl)s3)c2C#N)CC1` [Entry 267, prop-2-en-1-yl 4-(5-[(5-chlorothiophen-2-yl)methyl]amino-4-cyano-1-(2,2-dimethylpropanoyl)-1H-pyrazol-3-yl)piperidine-1-carboxylate] came in with an IC50 below 100 nM.

Consider `O=C(c1cccc2c1OCCO2)n1nc(C2CCNCC2)cc1NCc1ccc(Cl)s1` [Entry 143, N-[(5-chlorothiophen-2-yl)methyl]-1-(2,3-dihydro-1,4-benzodioxine-5-carbonyl)-3-(piperidin-4-yl)-1H-pyrazol-5-amine hydrochloride], for which the IC50 fell in the range of 1000 to 10000 nM.

For `COc1ccccc1C(=O)n1nc(C2CCCNC2)cc1NCc1ccc(Cl)s1` (centres unmarked) [Entry 157, N-[(5-chlorothiophen-2-yl)methyl]-1-(2-methoxybenzoyl)-3-(piperidin-3-yl)-1H-pyrazol-5-amine], the half-maximal inhibitory concentration (IC50) lay in the range of 100 to 1000 nM.

In turn, `Clc1ccc(CNc2cc(C3CCN(Cc4ncco4)CC3)n[nH]2)s1` [Entry 193, N-[(5-chlorothiophen-2-yl)methyl]-3-[1-(1,3-oxazol-2-ylmethyl)piperidin-4-yl]-1H-pyrazol-5-amine] displayed an IC50 above 100000 nM.

As to `CC1(c2cc(NCc3ccc(Cl)s3)n(C(=O)c3ccsc3)n2)CCCNC1=O` (centres unmarked) [Entry 123, 3-(5-[(5-chlorothiophen-2-yl)methyl]amino-1-(thiophene-3-carbonyl)-1H-pyrazol-3-yl)-3-methylpiperidin-2-one], the IC50 was in the range of 100 to 1000 nM.

In turn, `O=C(C1CCCC1)n1nc(C2CCNCC2)cc1NCc1ccc(Cl)s1` [Entry 170, N-[(5-chlorothiophen-2-yl)methyl]-1-cyclopentanecarbonyl-3-(piperidin-4-yl)-1H-pyrazol-5-amine hydrochloride] displayed an IC50 above 100000 nM.

The compound `FC(F)(F)CN1CCC(c2cc(NCc3ccc(Cl)s3)[nH]n2)CC1` [Entry 198, N-[(5-chlorothiophen-2-yl)methyl]-3-[1-(2,2,2-trifluoroethyl)piperidin-4-yl]-1H-pyrazol-5-amine] yielded an IC50 above 100000 nM.

`CC(C)(C)OC(=O)N1CCCC(c2cc(NCc3ccc(Cl)s3)n(C(=O)C3(C)CCOCC3)n2)C1` (centres unmarked) [Entry 287, tert-butyl 3-(5-[(5-chlorothiophen-2-yl)methyl]amino-1-(4-methyloxane-4-carbonyl)-1H-pyrazol-3-yl)piperidine-1-carboxylate] came in with an IC50 below 100 nM.

The compound `CC(C)(C)OC(=O)N1CCC(C)(c2cc(NCc3ccc(Cl)s3)n(C(=O)C(C)(C)C)n2)CC1` [Entry 291, tert-butyl 4-(5-[(5-chlorothiophen-2-yl)methyl]amino-1-(2,2-dimethylpropanoyl)-1H-pyrazol-3-yl)-4-methylpiperidine-1-carboxylate] showed an IC50 below 100 nM.

`Clc1ccc(CNc2cc(C3CCCNCC3)n[nH]2)s1` (centres unmarked) [Entry 125, 3-(azepan-4-yl)-N-[(5-chlorothiophen-2-yl)methyl]-1H-pyrazol-5-amine] yielded a 50% inhibitory concentration (IC50) above 100000 nM.

In turn, `CC(C)(C)OC(=O)N1CCCC1c1cc(NCc2ccc(Cl)s2)[nH]n1` (centres unmarked) [Entry 277, tert-butyl 2-(5-[(5-chlorothiophen-2-yl)methyl]amino-1H-pyrazol-3-yl)pyrrolidine-1-carboxylate] displayed an IC50 above 100000 nM.

With `CC(C)(C)OC(=O)N1CCCC(C)(c2cc(NCc3ccc(Cl)s3)n(C(=O)C(C)(C)C)n2)C1` (centres unmarked) [Entry 278, tert-butyl 3-(5-[(5-chlorothiophen-2-yl)methyl]amino-1-(2,2-dimethylpropanoyl)-1H-pyrazol-3-yl)-3-methylpiperidine-1-carboxylate], the IC50 is below 100 nM.

`O=C(N1CCOCC1)N1CCC(c2cc(NCc3ccc(Cl)s3)[nH]n2)CC1` [Entry 203, N-[(5-chlorothiophen-2-yl)methyl]-3-[1-(morpholine-4-carbonyl)piperidin-4-yl]-1H-pyrazol-5-amine] came in with an IC50 above 100000 nM.

`COc1ccccc1C(=O)n1nc(C2CCCN2)cc1NCc1ccc(Cl)s1` (centres unmarked) [Entry 159, N-[(5-chlorothiophen-2-yl)methyl]-1-(2-methoxybenzoyl)-3-(pyrrolidin-2-yl)-1H-pyrazol-5-amine]: the IC50 was in the range of 100 to 1000 nM.

In turn, `O=C(C1CCCCC1)n1nc(C2CCNCC2)cc1NCc1ccc(Cl)s1` [Entry 169, N-[(5-chlorothiophen-2-yl)methyl]-1-cyclohexanecarbonyl-3-(piperidin-4-yl)-1H-pyrazol-5-amine hydrochloride] had an IC50 above 100000 nM.

`O=C(c1ccsc1)n1nc(C2CCCNC2)cc1NCc1ccc(Cl)s1` (centres unmarked) [Entry 185, N-[(5-chlorothiophen-2-yl)methyl]-3-(piperidin-3-yl)-1-(thiophene-3-carbonyl)-1H-pyrazol-5-amine] yielded an IC50 of 100 to 1000 nM.

With `O=C(c1ccsc1)n1nc(C2CNC2)cc1NCc1ccc(Cl)s1` [Entry 129, 3-(azetidin-3-yl)-N-[(5-chlorothiophen-2-yl)methyl]-1-(thiophene-3-carbonyl)-1H-pyrazol-5-amine; trifluoroacetic acid], the IC50 lay in the range of 1000 to 10000 nM.

`CS(=O)(=O)N1CCCC(c2cc(NCc3ccc(Cl)s3)[nH]n2)CC1` (centres unmarked) [Entry 171, N-[(5-chlorothiophen-2-yl)methyl]-3-(1-methanesulfonylazepan-4-yl)-1H-pyrazol-5-amine] showed a 50% inhibitory concentration (IC50) above 100000 nM.

`O=C(c1ccsc1)n1nc(C2CCCO2)cc1NCc1ccc(Cl)s1` (centres unmarked) [Entry 183, N-[(5-chlorothiophen-2-yl)methyl]-3-(oxolan-2-yl)-1-(thiophene-3-carbonyl)-1H-pyrazol-5-amine] came in with an IC50 below 100 nM.
